Values of other authors, collected in article PMC11212004 (Pharmacology Research & Perspectives, 2024).

Assays:
[1] = system: Orai calcium channel
[2] = system: osteoclasts
[3] = collagen‐induced arthritis (CIA) model
[4] = system: Jurkat cells

CCC(=O)Nc1ccc(Cl)c(Cl)c1 [DCPA, 3,4‐dichloropropionanilide]
Orai calcium channel antagonism [1]: functions as an Orai calcium channel antagonist
mineral resorption by osteoclasts in vitro [2]: inhibits mineral resorption
bone erosion and cartilage damage [3]: reduces bone erosion and cartilage damage
IL‐2 secretion [4]: decreased NFAT‐dependent IL‐2 secretion
